Laboratory results from the NIST ThermoML archive (doi:10.1016/j.tca.2016.03.013).
Where “and” joins values, the source holds several entries; their conditions need not be identical. Identical values can stand only once.

Experiments:
[1] = for vapor or sublimation pressure: Liquid, Rate of evaporation; for Normal melting temperature: Crystal, DTA
[2] = Molar enthalpy of transition or fusion; settings: Crystal; DSC
[3] = molar heat capacity at constant pressure; settings: 101.33 kPa, Small sample (50 mg) DSC

c1ccc2c(c1)ccc1ccccc12 [phenanthrene]
[1]
Settings	vapor or sublimation pressure [kPa]
384 K	0.0567
388 K	0.0795
392 K	0.097
396 K	0.1144
400 K	0.146
404 K	0.1785
408 K	0.2069
412 K	0.2439
416 K	0.2926
420 K	0.3468

c1ccc2c(c1)OCCOCCOc1ccccc1OCCOCCO2 [dibenzo[b,k][1,4,7,10,13,16]hexaoxacyclooctadecane]
[1]
Settings	vapor or sublimation pressure
545 K	0.5186 kPa and 0.4924 kPa and 0.5452 kPa
550 K	0.6057 kPa and 0.6363 kPa and 0.6637 kPa
555 K	0.7424 kPa and 0.8052 kPa and 0.7755 kPa
560 K	0.9045 kPa and 0.9751 kPa and 0.9424 kPa
565 K	1.095 kPa and 1.169 kPa and 1.137 kPa
570 K	1.323 kPa and 1.398 kPa and 1.369 kPa
575 K	1.589 kPa and 1.663 kPa and 1.638 kPa
580 K	1.903 kPa and 1.969 kPa and 1.948 kPa
585 K	2.258 kPa and 2.321 kPa and 2.316 kPa
590 K	2.673 kPa and 2.72 kPa and 2.717 kPa
595 K	3.164 kPa and 3.142 kPa and 3.16 kPa

Settings	Molar enthalpy of transition or fusion [kcal/mol]	Normal melting temperature [°C]
[1]	–	162.50
[2]	13.4	–

[3]
Settings	molar heat capacity at constant pressure [J/K/mol]
295 K, Crystal	434.6
298.15 K, Crystal	439.7
300 K, Crystal	443.6
305 K, Crystal	449
310 K, Crystal	457.8
315 K, Crystal	462.9
320 K, Crystal	468.4
325 K, Crystal	474.6
330 K, Crystal	481.5
335 K, Crystal	487.5
340 K, Crystal	494.7
345 K, Crystal	500.5
350 K, Crystal	506.2
355 K, Crystal	513.3
360 K, Crystal	520.1
365 K, Crystal	527
370 K, Crystal	533.2
375 K, Crystal	540.2
380 K, Crystal	547.6
385 K, Crystal	555.2
390 K, Crystal	563.2
395 K, Crystal	571.3
400 K, Crystal	580.1
405 K, Crystal	588.7
410 K, Crystal	596.8
415 K, Crystal	604.8
445 K, Liquid	755.4
450 K, Liquid	761
455 K, Liquid	768.7
460 K, Liquid	772.5
465 K, Liquid	780.2
470 K, Liquid	787
475 K, Liquid	792
480 K, Liquid	799.7
485 K, Liquid	806
490 K, Liquid	812.6

C1COCCOCCOCCOCCOCCO1 [1,4,7,10,13,16-hexaoxacyclooctadecane]
[1]
Settings	vapor or sublimation pressure
430 K	0.3102 kPa and 0.3376 kPa and 0.3358 kPa
435 K	0.4315 kPa and 0.4219 kPa and 0.4305 kPa
440 K	0.5414 kPa and 0.5488 kPa and 0.5487 kPa
445 K	0.6904 kPa and 0.6934 kPa and 0.6846 kPa
450 K	0.858 kPa and 0.8682 kPa and 0.8441 kPa
455 K	1.063 kPa and 1.052 kPa
460 K	1.315 kPa and 1.31 kPa and 1.317 kPa
465 K	1.616 kPa and 1.619 kPa and 1.602 kPa
470 K	1.972 kPa and 1.959 kPa and 1.967 kPa
475 K	2.394 kPa and 2.387 kPa and 2.399 kPa
480 K	2.879 kPa and 2.853 kPa and 2.858 kPa

Settings	Molar enthalpy of transition or fusion [kcal/mol]	Normal melting temperature [°C]
[1]	–	39.17
[2]	9.56	–

[3]
Settings	molar heat capacity at constant pressure [J/K/mol]
290 K, Crystal	380.3
291 K, Crystal	388.3
292 K, Crystal	394.8
293 K, Crystal	401.7
294 K, Crystal	409.8
295 K, Crystal	418.9
296 K, Crystal	428.4
297 K, Crystal	440.7
298 K, Crystal	457
298.15 K, Crystal	460
299 K, Crystal	479.4
315 K, Liquid	515
320 K, Liquid	516.5
325 K, Liquid	518.7
330 K, Liquid	521.5
335 K, Liquid	522.8
340 K, Liquid	524.9
345 K, Liquid	526.3
350 K, Liquid	527.8
355 K, Liquid	528.8
410 K, Liquid	562.4
415 K, Liquid	567.4
420 K, Liquid	573.6
425 K, Liquid	578.6
430 K, Liquid	582.6
435 K, Liquid	587.1
440 K, Liquid	590.4
445 K, Liquid	595.2
450 K, Liquid	599.4
455 K, Liquid	603
460 K, Liquid	607.7
465 K, Liquid	612.5
470 K, Liquid	617.4
475 K, Liquid	621.3
480 K, Liquid	626.4
485 K, Liquid	630.9
490 K, Liquid	635.9
